Assay: xn = mol fraction of the nth substance listed
Details: 101 kPa

C=CC[n+]1ccn(C)c1.[Cl-] + O
viscosity [mPa·s]
Details | 298.15 K | 303.15 K | 313.15 K | 323.15 K | 328.15 K | 333.15 K | 343.15 K | 353.15 K | 363.15 K | 373.15 K
x2 = 0.045 | 1884 | 1137 | – | 232 | 167 | 124 | 73 | 46.2 | 31.2 | 22.21
x2 = 0.091 | 1416 | 891 | 392 | 196 | 144 | – | 64.9 | 41.8 | – | 20.53
x2 = 0.126 | 1090 | 691 | – | 164 | 123 | 92 | 56.3 | – | – | –
x2 = 0.152 | 887 | 580 | 270 | 147 | 108 | 84 | 51.7 | 34.3 | 24 | 17.6
x2 = 0.193 | – | 459 | 221 | 121 | 91 | 71 | 45 | 30.4 | 21.6 | –
x2 = 0.267 | – | 293 | 151 | 86 | 67.1 | 53.1 | 35 | – | 17.7 | –
x2 = 0.335 | 259 | – | 101 | – | 48.6 | 39.3 | 26.8 | 19.2 | 14.26 | 10.98

CC(=O)[O-].CC[n+]1ccn(C)c1 + O
viscosity [mPa·s]
Details | 298.15 K | 303.15 K | 313.15 K | 323.15 K | 333.15 K | 343.15 K | 353.15 K | 363.15 K | 373.15 K
x2 = 0.072 | 124 | 92 | 55.4 | 35.4 | 24.3 | 17.63 | 13.21 | – | 8.19
x2 = 0.102 | 119 | 89 | 53.6 | 34.5 | 23.8 | 17.23 | – | – | 8.07
x2 = 0.132 | 112 | – | 51.1 | – | 22.9 | 16.73 | – | – | 7.86
x2 = 0.188 | 100 | 76 | – | 30.6 | – | 15.69 | – | 9.32 | –
x2 = 0.266 | – | 66 | 41.8 | 27.7 | – | 14.44 | 11 | 8.67 | 6.98
x2 = 0.355 | 75 | 58 | 36.9 | 24.8 | 17.7 | – | – | 8 | 6.47

Source: a compilation of properties of binary mixtures (doi:10.1016/j.jct.2015.07.015)
